This is an account of results in patent US6881584B1, “Infrared thermography” (SmithKline Beecham Corporation, priority 1998, dated 2005).

One data set concerns C3H10T1/2 cells. The data set can be described thus: Infrared thermography of heat production in differentiating C3H10T1/2 cells (PPARγ agonists). It is filed as cell-based. To be noted: in the presence of insulin and 9-cis retinoic acid (FIG. 7), read-out: EC50(μM), thermogenesis and lipogenesis assays. Here is the method:
(§1) Human subcutaneous adipocytes were purchased from Zen-Bio, Inc. (Research Triangle Park, N.C.). C3H10T1/2 clone 8 fibroblasts were differentiated into adipocytes as previously described (Lenhard et al, Biochem. Pharmacol. 54:801-808 (1997), Paulik and Lenhard, Cell Tissue Res. 290:79-87 (1997)). After 7 days in culture, triglyceride accumulation was determined by adding lipoprotein lipase and GPO-Trinder reagent (assay kit 337-B, Sigma Diagnostics, St. Louis, Mo.) to the cells (50 μl/cm^2) and incubating the lysates at 37° C. for 2 hours. The optical density was measured using a spectrophotometer set at a wavelength of 540 nm. Lipolysis was measured as previously described (Lenhard et al, Biochem. Pharmacol. 54:801-808 (1997)).
Heat generation was measured using a Stirling cooled Agema Thermovision 900 Infrared System AB (Marietta, Ga.) equipped with a SW Scanner and 40°×25° lens which detects a 2-5.4 micron spectral response. […] The focal distance was 6 cm. Images were captured using a recurs function set at 16 or an averaging function set at 32. The data was analyzed using OS-9 advanced systems and ERIKA 2.00 software according to the manufacturer's specifications (FLIR Infrared Systems AB, Danderyd, Sweden). […] Various color scales in the visible wavelength were used to depict the temperature fluctuations of the recorded images. […]

Data set [1] concerns intrascapular brown adipose tissue (IBAT). Briefly: IBAT thermogenesis in ob/ob mice treated with PPARγ agonist. It is filed as in vivo. To be noted: two weeks treatment, compared to control animals. The procedure:
(§2) Heat generation was measured using a Stirling cooled Agema Thermovision 900 Infrared System AB (Marietta, Ga.) equipped with a SW Scanner and 40°×25° lens which detects a 2-5.4 micron spectral response. […] The focal distance was 6 cm. Images were captured using a recurs function set at 16 or an averaging function set at 32. The data was analyzed using OS-9 advanced systems and ERIKA 2.00 software according to the manufacturer's specifications (FLIR Infrared Systems AB, Danderyd, Sweden). Thermography of adipocytes was performed by maintaining the ambient temperature of the cultured cells at 37±0.02° C. using a Queue Systems Inc. (Parkersburg, W.Va.) incubator, model QWJ500SABA. Spectral analysis of yeast was performed at 30±0.02° C. using the same incubator system. After treating the cells with experimental agents (e.g., rotenone etc.), the temperature was equilibrated for 10 minutes in the incubator before measuring real time thermogenesis for all microtiter plate applications. Various color scales in the visible wavelength were used to depict the temperature fluctuations of the recorded images. Although temperature scales are constant, the color scale images are variable and can be adjusted with level and span controls.

The test system of the next data set is hair-loss. Briefly: Chemotherapy-induced hair-loss by infrared thermography in newborn pups treated in utero. It is filed as in vivo, rat. To be noted: 6 mg/kg. An excerpt:
Hair loss can result from undesirable side-effects of various therapies (e.g., radiation treatment of cancer patients, surgery etc.) and can occur naturally with age, whereas surgical or pharmacological intervention can restore hair growth. Since hair provides insulation against heat loss and aids in the maintenance of a constant body temperature, it was of interest to determine if infrared thermography can be used to measure hair loss. The lack of progress in the treatment and prevention of chemotherapy-induced alopecia is in part due to the lack of a reproducible animal model as well as a quantitative method to measure hair-loss. To determine if infrared imaging can be used to quantitatively measure chemotherapy induced hair-loss, newborn rat pups that were treated in utero with the known cancer agent, etoposide, were thermally profiled for hair-loss.

Data set [2] concerns C3H10T1/2 adipocytes. The data set can be described thus: Lipolysis in adipocytes treated with β-AR-agonists. Format: cell-based. The settings on record: Mus musculus, C3H 10T1/2, read-out: EC50 (nM) Lipolysis. The procedure: as §1
(§3) As a control, the effects of β-AR-agonists on lipolysis was also measured. […] In general, this expands to measuring thermogenic activity of both catabolic and anabolic mediated-effects of potential drug candidates.

Data set [3] relates to C3H10T1/2 adipocytes. Briefly: Infrared thermography of thermogenesis in cultured adipocytes (β-AR-agonists). Format: cell-based. To be noted: for EC50: Mus musculus. Here is the method: as §1, §2
The β3-AR-agonists are candidate therapeutic agents for the treatment of diabetes and obesity. Although, the mechanism of action for these agents is thought to involve increased metabolic rate (Scarpace, Ann. N.Y. Acad. Sci. 813:111-116 (1997)), it has yet to be shown that β-AR-agonists increase heat output by adipocytes. Therefore, it was determined whether infrared imaging could be used to monitor the effects of β-AR-agonists on thermogenesis in cultured adipocytes.
as §3

Data set [4] has as its target T1, beta 3 adrenergic receptor (β3AR) (Homo sapiens, UniProt P13945).
T1 construct: expressed in transfected cells; host or cells: Chinese Hamster Ovary (CHO) cells
The data set can be described thus: Infrared thermography of CHO cells overexpressing the β3AR receptor. It is filed as cell-based. The procedure: as §2

The next data set deals with liver. It is filed as in vivo. To be noted: ob/ob mice, 0.1-1 mg/kg i.p., 90 minutes, dose-dependent. Here is the method: FIG. 29. Liver thermogenesis in ob/ob mice 90 minutes after treatment with lipopolysaccharide (LPS) detected by IR thermography. Male ob/ob mice were housed and maintained as described in FIG. 1. Mice were dosed at 0.0, 0.1, 0.3, or 1 mg/kg LPS in water vehicle (0.5 mL i.p.; n=10 per dose) and anesthetized using isoflurane as described above 90 minutes after treatment. The abdomens of the anesthetized mice were surgically opened to expose the liver and Bioclusive adhesive was placed over the entire exposed area. IR images of the liver region were acquired and analyzed as detailed in FIG. 28. […] Quantification of the IR signal in the liver region is shown in the bottom panel. Data are means±SEM for n=10 animals per group. Asterisks (*) denote statistical differences from control (p<0.05, ANOVA with Student-Newman-Keuls post hoc tests).
Use of IR transparent adhesive to image liver thermogenesis in vivo. […] Indeed, temperature measurements obtained by IR thermography correlated well with liver toxicity measured as AST release (r=0.99). In addition, temperature changes measured using IR thermography correlated with alanine aminotransferase (ALT) release, another marker of liver injury (r=0.76, data not shown).

For a further data set, the system named is thoracic area. The data set can be described thus: Infrared thermography of thoracic area of nude mice treated with inhalant. The settings on record: vs vehicle. It is filed as in vivo. Here is the method: (§4) Male AKR/J, C57BL/6J, and SWR/J mice were purchased from 4-8 weeks of age from Jackson Laboratories (Bar Harbor, Me.). Mice were fed high and low fats diets containing high sucrose as defined by Surwit et al., (Metabolism 44(5):645-651 (1995)). After 14 weeks on these diets, the intrascapular fur was shaved, the animals were dosed (intraperitineal) with 1 mg/kg of BRL37344, and the animals were anesthetized with isofluorane. Nude mice (BALB/C) were 6-8 weeks old and were dosed with inhalant two times before thermal profiling. The Lewis rat strain (200-250 g) were used for both the MED and inflammation experiments. Infrared thermographic images and temperature calculations were recorded using an Agema Thermovision 900 Infrared System.
Furthermore, the bioavailability and bioactivity of inhalants in animals and man is often difficult to measure and quantitate. Assays available for measuring bioavailabilty of inhalants involve measuring the uptake of radiolabeled inhalant in selected tissues (eg. lung). Infrared thermography provides a non-invasive method for measuring the bioavailibilty/bioactivity of inhalant compounds. Thus, infrared thermography was used to measure the thermal activity induced by an inhalant in the thoracic area of nude mice.

For another data set, the system named is yeast. Format: cell-based. To be noted: dose response, relative to untreated cells.
In another data set the test system is human adipocytes. Briefly: Infrared thermography of human adipocytes in 96-well plates. It is filed as cell-based. The settings on record: dose response, relative to untreated cells.
The next data set has as its system UCP2. The data set can be described thus: Infrared thermography of yeast expressing UCP2. Format: cell-based. To be noted: galactose-induced UCP2. Here is the method:
Human skeletal muscle cDNA (#7175-1) was purchased from Clontech (Palo Alto, Calif.). UCP2 specific-sequences were PCR amplified from the sample using oligonucleotide primers that matched the 5′ and 3′ ends of a published sequence (GenBank U82819). Vent polymerase was used (New England Biolabs, Beverly, Mass.) in a standard reaction mixture with 2 mM MgSO4 and 5% DMSO. The cycle parameters were 94° C. for 1 min., 55° C. for 1 min., and 72° C. for 1 min., repeated 29 times. The sample was passed over an S-400 spin column (Pharmacia, Piscataway, N.J.) prior to ligation in a vector for transformation of E. coli. The authenticity of the clone was confirmed by DNA sequence analysis. For the experiments in yeast, the UCP2 coding sequence was amplified by PCR using primers with the sequence […] AAGGCCA (SEQ ID NO:1) (sense) and […] (SEQ ID NO:2) (antisense) followed by a second PCR using primers with the sequence […] (SEQ ID NO:3) (sense) and […] (SEQ ID NO:4) (antisense). The PCR product was cloned into pYX233 (R&D Systems) by homologous recombination in yeast strain W303 (a/a homozygous for ade2-1, his3-1, 15 leu2-3, 112, trp1-1, ura3-1). Yeast transformants were selected on BSM-trp agar (Bio 101, Vista, Calif.). The correct UCP2 sequence was verified by sequencing plasmids back-extracted from yeast to E. coli. […]

Another data set deals with genitalia. The data set can be described thus: Thermogenesis in rat genitalia (male erectile dysfunction). Format: in vivo. The settings on record: rats, 2 hours after PO dosing, 3.0 or 0.3 mg/kg. Here is the method:
as §4
Male erectile dysfunction (MED) is treatable with drugs that increase blood flow to the genitalia. Increased local thermogenesis is associated with increased local blood flow. One drug that acts in this manner and treats MED is Pinacidil. […] Thus, infrared thermography provides a quantitative and non-invasive method for identifying and evaluating drug candidates for the MED indication as well as identifying candidates that can cause erection as a side effect.

Another data set deals with HUVEC cells. The settings on record: 10 minutes. The procedure: as §2
A further data set has as its system tissue vascularization. The settings on record: nude mice, vs control injection.

T1 sequence (P13945 whole entry): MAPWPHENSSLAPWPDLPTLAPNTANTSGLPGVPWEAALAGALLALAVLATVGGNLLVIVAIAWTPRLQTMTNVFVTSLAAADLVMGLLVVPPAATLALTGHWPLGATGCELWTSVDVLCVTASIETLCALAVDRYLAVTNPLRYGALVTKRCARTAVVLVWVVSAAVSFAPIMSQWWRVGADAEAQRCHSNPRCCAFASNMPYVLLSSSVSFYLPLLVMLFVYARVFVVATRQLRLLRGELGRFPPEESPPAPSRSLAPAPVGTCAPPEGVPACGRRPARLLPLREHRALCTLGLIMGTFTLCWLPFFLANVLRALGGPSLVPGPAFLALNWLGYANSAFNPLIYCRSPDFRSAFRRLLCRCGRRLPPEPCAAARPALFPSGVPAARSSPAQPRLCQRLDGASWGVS
Description for human adipocytes: Heat generation was measured using a Stirling cooled Agema Thermovision 900 Infrared System AB (Marietta, Ga.) equipped with a SW Scanner and 40°×25° lens which detects a 2-5.4 micron spectral response. […] The focal distance was 6 cm. Images were captured using a recurs function set at 16 or an averaging function set at 32. The data was analyzed using OS-9 advanced systems and ERIKA 2.00 software according to the manufacturer's specifications (FLIR Infrared Systems AB, Danderyd, Sweden). Thermography of adipocytes was performed by maintaining the ambient temperature of the cultured cells at 37±0.02° C. using a Queue Systems Inc. (Parkersburg, W.Va.) incubator, model QWJ500SABA. […] After treating the cells with experimental agents (e.g., rotenone etc.), the temperature was equilibrated for 10 minutes in the incubator before measuring real time thermogenesis for all microtiter plate applications. Various color scales in the visible wavelength were used to depict the temperature fluctuations of the recorded images. Although temperature scales are constant, the color scale images are variable and can be adjusted with level and span controls.
Description for tissue vascularization: Nude mice were injected with either VEGF peptide or a control followed by themographic imaging of both injection sites.

In the case of `CN(CCOc1ccc(C[C@H](Nc2ccccc2C(=O)c2ccccc2)C(=O)O)cc1)c1ccccn1` [GW1929], in the data set with C3H10T1/2 cells, the half-maximal effective concentration (EC50) (commonly the concentration that produces a half-maximal response) was determined as 0.052 µM. Besides, in data set [1], the IBAT thermogenesis entry is recorded as “reduction in IBAT thermogenesis”.

As to `COc1cc([C@@H]2c3cc4c(cc3[C@@H](O[C@@H]3O[C@@H]5CO[C@@H](C)O[C@H]5[C@H](O)[C@H]3O)[C@H]3COC(=O)[C@H]23)OCO4)cc(OC)c1O` [etoposide], the “thermal activity as a result of hair-loss” value in the data set with hair-loss is “increased thermal activity in both the fronts and backs as a result of hair-loss”.

In the case of `CC(C)NCC(O)c1ccc(O)c(O)c1` (centres unmarked) [Isoproterenol], the EC50 in the data set with C3H10T1/2 adipocytes [2] came to 27.1 nM; in the data set on C3H10T1/2 adipocytes [3] (C3H 10T1/2, adipocytes, infrared thermography, dose response, read-out: EC50 (nM) Thermogenesis), 28 nM. Also, in the data set with C3H10T1/2 adipocytes [3] (C3H10T1/2 adipocytes), the stimulation of thermogenesis result is on record as “stimulated”. In addition, in data set [4], the “thermogenic response of CHO cells” value is listed as “responsive in a dose-dependent manner”.

With lipopolysaccharide [LPS], the liver thermogenesis result in the data set on liver is “thermogenesis is increased”.

As to `CC(C)(C)NCC(O)c1ccc(O)c(CO)c1` (centres unmarked) [Albuterol], in the data set with thoracic area, the torso area temperature entry is “torso temperature increases after 2.5 minutes”.

For `C=C(C)[C@H]1Cc2c(ccc3c2O[C@@H]2COc4cc(OC)c(OC)cc4[C@@H]2C3=O)O1` [Rotenone], the EC50 with C3H10T1/2 adipocytes [3] (C3H 10T1/2, read-out: EC50 (nM) Thermogenesis) was found to be 8.5 nM. The “thermogenesis of cells treated with β-AR-agonists” value in the data set with C3H10T1/2 adipocytes [3] (cells treated with 50 nM of the various β-AR-agonists) is “inhibited thermogenesis”. In addition, the thermogenesis in yeast result in the data set on yeast is “inhibited thermogenesis”. In addition, the “thermogenesis in human adipocytes” value with human adipocytes was “inhibited thermogenesis”. In addition, the UCP2-mediated thermogenesis result in the data set with UCP2 is given as “inhibited”.

As for `CC(N/C(=N\C#N)Nc1ccncc1)C(C)(C)C` (centres unmarked) [Pinacidil], the “thermogenesis in the genitalia” value with genitalia is listed as “increase in thermogenesis”.

In the case of VEGF, the “thermogenesis in HUVEC cells” value with HUVEC cells is “induced thermogenesis”. Besides, the “thermogenesis in local area of injection” value in the data set with tissue vascularization is recorded as “enhanced thermogenesis”.
